The values below come from patent US20040200144A1, “Plant growth regulator and a method of producing the regulator” (Dainichiseika Color & Chemicals Mfg. Co., Ltd., priority 2003, published 2004).

Holding throughout (type): in vivo
One test has as its system carrot young plants. Briefly: Dwarfing test of carrot young plant. Particulars: for Plant Height / Dwarfing Rate: 5 ml per cell on 5th day, measured 27th day; for Dwarfing Rate: vs comparative group. The method, then: Dwarfing rate (%)=[(the plant height of the comparative group)−(the plant height of an addition group)/the plant height of the comparative group]×100
(§1) 50 g of sodium tripolyphosphate was dissolved in 400 ml of distilled water at 80° C., 17.5 g of cinnamic acid was added to the sodium tripolyphosphate solution and dissolved by stirring, the resultant solution was diluted with distilled water until the total volume of solution was 500 ml, and thus 3.5% cinnamic acid aqueous solution (pH 6.5) was prepared. The aqueous solution was further diluted with distilled water 70 times or 17.5 times, and 0.05% cinnamic acid aqueous solution and 0.2% cinnamic acid aqueous solution were prepared, respectively.
Nursery soil for house use was filled into paper joint pots (each with 24 cells: 34×43×50 mm/cell), water was sufficiently given to the soil, and seeds of carrots were sowed. After seeding, the pot was placed in the same greenhouse as described above to sprout. Subsequently, on the 5th day, the cinnamic aqueous acid solutions were added to the nursery soil in the joint pots. One of the joint pots (24 cells) was prepared as a 0.05% cinnamic acid aqueous solution addition group, and 5 ml of the 0.05% cinnamic acid aqueous solution was added to the nursery soil of each cell. Another one of the join pots was prepared as a 0.2% cinnamic acid aqueous solution addition group, and 5 ml of the 0.2% cinnamic acid aqueous solution was added to the nursery soil of each cell. The other one of the joint pots was prepared as a comparative group in which 5 ml of water is added to each cell, instead of the cinnamic acid aqueous solution. Subsequently, the cultivation of carrot young plants in each group was continued under general conditions. On the 27th day, the heights of young plants in each group were measured, the dwarfing rate (%) was calculated, and the dwarfing effect of cinnamic acid aqueous solution on carrot young plants was examined. […]

For test [1], the system named is qing-geng-cai young plants. Briefly: Dwarfing test of qing-geng-cai young plant. Particulars: for Plant Height / Dwarfing Rate: 5 ml per cell on 5th day, measured 20th day; for Dwarfing Rate: vs comparative group. On the procedure: as §1
(§2) Nursery soil for house use was filled into paper joint pots (each with 24 cells: 34×43×50 mm/cell), water was sufficiently given to the soil, and seeds of carrots were sowed. After seeding, the pot was placed in the same greenhouse as described above to sprout. Subsequently, on the 5th day, the cinnamic aqueous acid solutions were added to the nursery soil in the joint pots. One of the joint pots (24 cells) was prepared as a 0.05% cinnamic acid aqueous solution addition group, and 5 ml of the 0.05% cinnamic acid aqueous solution was added to the nursery soil of each cell. Another one of the join pots was prepared as a 0.2% cinnamic acid aqueous solution addition group, and 5 ml of the 0.2% cinnamic acid aqueous solution was added to the nursery soil of each cell. The other one of the joint pots was prepared as a comparative group in which 5 ml of water is added to each cell, instead of the cinnamic acid aqueous solution. Subsequently, the cultivation of carrot young plants in each group was continued under general conditions. On the 27th day, the heights of young plants in each group were measured, the dwarfing rate (%) was calculated, and the dwarfing effect of cinnamic acid aqueous solution on carrot young plants was examined. […].
In the same way as in Example 5 except that seeds of […] were sowed, and that plant heights were measured on the 20th day, the dwarfing effect of cinnamic acid aqueous solution on qing-geng-cai young plants was examined. […]

The test system of the next test is field peas young plants. Briefly: Dwarfing test of field peas young plant. Particulars: for Plant Height / Dwarfing Rate: measured 24th day; for Dwarfing Rate: vs comparative group. The method, then:
18.4 g of potassium hydroxide was dissolved in 400 ml of distilled water at 20° C., 50 g of cinnamic acid was added to the potassium hydroxide solution and dissolved by stirring, the resultant solution was diluted with distilled water until the total volume of solution was 500 ml, and thus 10% cinnamic acid aqueous solution (pH 8.8) was prepared. The aqueous solution was further diluted with distilled water 100 times or 33.3 times, and 0.1% cinnamic acid aqueous solution and 0.3% cinnamic acid aqueous solution were prepared, respectively.
as §2
In the same way as in Example 5 except that seeds of field peas were sowed, 0.1% and 0.3% cinnamic acid solutions in example 3 were added to the nursery soil in the joint pot, and that heights of young plants in each group were measured on the 24th day, the dwarfing effect of cinnamic acid aqueous solution on field peas young plants was examined. […]

The test system of the next test is broccoli young plants. As to the kind of experiment: Dwarfing test of broccoli young plant. Conditions: for Plant Height / Dwarfing Rate: 5 ml per cell on 4th day, measured 20th day; for Dwarfing Rate: vs comparative group. The method, then: as §1, §2
In the same way as in Example 12 except that seeds of broccoli were sowed, the dwarfing effect of cinnamic acid aqueous solution on broccoli young plants was examined. […]

[2] abbreviates: 0.1% aqueous solution of Example 3, 5 ml per cell on 5th day.
Where [3] appears, read: 0.3% aqueous solution of Example 3, 5 ml per cell on 5th day.

With `O=C(O)C=Cc1ccccc1` [cinnamic acid], the “Plant Height” value turned out to be 7.9 cm with carrot young plants (0.05% aqueous solution); 6.9 cm in the test on carrot young plants (0.2% aqueous solution); 6.3 cm in test [1] (0.05% aqueous solution); 4.3 cm in test [1] (0.2% aqueous solution); 24.3 cm in the test on field peas young plants (setting [2]); 18.1 cm with field peas young plants (setting [3]). Moreover, the “Plant Height” value stood at 8.8 cm in the test with broccoli young plants (0.05% aqueous solution) and 6.4 cm in the test with broccoli young plants (0.2% aqueous solution). For the same compound, the “Dwarfing Rate” value in the test on carrot young plants (0.05% aqueous solution) is reported as 7.1%; in the test with carrot young plants (0.2% aqueous solution) it was 18.8%; in test [1] (0.05% aqueous solution) it was 7.4%; in test [1] (0.2% aqueous solution) it was 36.8%; with field peas young plants (setting [2]), 19.5%; with field peas young plants (setting [3]), 40.1%. The “Dwarfing Rate” value in the test with broccoli young plants (0.05% aqueous solution) stood at 6.4%; with broccoli young plants (0.2% aqueous solution), 31.9%. For the same compound, the dwarfing effect entry in the test with carrot young plants (carrot young plants, 0.05% and 0.2% aqueous solutions) was “effective”; in test [1] (qing-geng-cai young plants, 0.05% and 0.2% aqueous solutions), “effective”; in the test with field peas young plants (field peas young plants, 0.1% and 0.3% aqueous solutions) it was “effective”; in the test with broccoli young plants (broccoli young plants, 0.05% and 0.2% aqueous solutions) it was “effective”.
